Results taken from patent publication US6500841B1, “Inhibitors of farnesyl-protein transferase” (Merck & Co., Inc., priority 1994, dated 2002).

Key:
[1] = tested on: Ras farnesylation in the v-ras cell line (viral Ha-ras p21); assay: cells; format: cell-based; settings: v-ras cell line expressing viral Ha-ras p21; <1 = >50% inhibition at a 1 μM concentration
Experimental: The cell line used in this assay was the v-ras line, which expressed viral Ha-ras p21. The assay was performed essentially as described in DeClue, J. E. et. al., Cancer Research 51, 712-717, (1991). Cells in 10 cm dishes at 50-75% confluency were treated with the test compound (final concentration of solvent, methanol or dimethyl sulfoxide, was 0.1%). After 4 hours at 37° C., the cells were labelled in 3 ml methionine-free DMEM supplemeted with 10% regular DMEM, 2% fetal bovine serum and 400 μCi[^35S]methionine (1000 Ci/mmol). After an additional 20 hours, the cells were lysed in 1 ml lysis buffer (1% NP40/20 mM HEPES, pH 7.5/5 mM MgCl2/1 mM DTT/10 μg/ml aprotinen/2 μg/ml leupeptin/2 μg/ml antipain/0.5 mM PMSF) and the lysates cleared by centrifugation at 100,000×g for 45 min. Aliquots of lysates containing equal numbers of acid-precipitable counts were brought to 1 ml with IP buffer (lysis buffer lacking DTF) and immunoprecipitated with the ras-specific monoclonal antibody Y13-259 (Furth, M. E. et. al., J. Virol. 43, 294-304, (1982)). Following a 2 hour antibody incubation at 4° C., 200 μl of a 25% suspension of protein A-Sepharose coated with rabbit anti rat IgG was added for 45 min. The immunoprecipitates were washed four times with IP buffer ([…], pH 7.5/1 mM EDTA/1% Triton X-100.0.5% deoxycholate/0.1%/SDS/0.1 M NaCl) boiled in SDS-PAGE sample buffer and loaded on 13% acrylamide gels. When the dye front reached the bottom, the gel was fixed, soaked in Enlightening, dried and autoradiographed. The intensities of the bands corresponding to farnesylated and nonfarnesylated ras proteins were compared to determine the percent inhibition of farnesyl transfer to protein.

[2] = target: Farnesyl-protein transferase (FTase) (UniProt P49354+P49356); assay: In vitro inhibition of Ras farnesyl transferase; format: biochemical; settings: Ras-CVLS at 3.5 μM, 0.25 μM [3H]FPP; partially purified bovine or recombinant human enzyme; concentration giving 50% inhibition of FTase; read-out: Inhibition of RAS farnesylation, IC50
Experimental: Farnesyl-protein transferase (FTase) from bovine brain was chromatographed on DEAE-Sephacel (Pharmacia, 0-0.8 M NaCl gradient elution), N-octyl agarose (Sigma, 0-0.6 M NaCl gradient elution), and a mono Q HPLC column (Pharmacia, 0-0.3 M NaCl gradient). Ras-CVLS at 3.5 μM, 0.25 μM [^3H]FPP, and the indicated compounds were incubated with either a partially purified bovine enzyme preparation or a recombinant human enzyme preparation. The recombinant human enzyme was prepared as described in Omer, C. A., Kral, A. M., Diehl, R. E., Prendergast, G. C., Powers, S., Allen, C. M., Gibbs, J. B. and Kohl, N. E. (1993) Biochemistry 32:5167-5176. The Frase data presented below in Table 1 reflects the ability of the test compound to inhibit RAS farnesylation in vitro, as described in Pompliano, et al., Biochemistry 31, 3800 (1992).

SMILES	IC50 [1] [µM]	IC50 [2] [µM]
CCC(C)[C@@H](CN1Cc2ccccc2C[C@H]1C(=O)N[C@@H](CCSC)C(=O)OC)NC[C@@H](N)CS (stereo partly drawn) [Compound 1, N-[N′-[2(S)-(2(R)-amino-3-mercaptopropylamino)-3(S)-methylpentyl]-1,2,3,4-tetrahydro-3(S)-isoquinolinecarboxyl]-methionine methyl ester]	0.25	0.68
CC[C@H]1CCN(C[C@@H](NC[C@@H](N)CS)[C@@H](C)CC)[C@@H]1C(=O)N[C@@H](CCSC)C(=O)OC [Compound 5, N-[2(S)-(2(R)-amino-3-mercaptopropylamino)-3(S)-methylpentyl]-trans-3-ethyl-prolyl-methionine methyl ester]	< 1	0.52
CC[C@@H]1CCN(C[C@@H](NC[C@@H](N)CS)[C@@H](C)CC)[C@@H]1C(=O)N[C@@H](CCSC)C(=O)OC [Compound 7, N-[2(S)-(2(R)-amino-3-mercaptopropylamino)-3(S)-methylpentyl]-cis-3-ethyl-prolyl-methionine methyl ester]	1	2.3
CC[C@H](C)[C@@H](CN1CCC[C@H]1C(=O)N[C@@H](CCS(C)(=O)=O)C(=O)OC)NC[C@@H](N)CS [Compound 9, N-[2(S)-(2(R)-amino-3-mercaptopropylamino)-3(S)-methylpentyl]-prolyl-methionine sulfone methyl ester]	> 10	0.95
CCC(C)[C@@H](CN1Cc2ccccc2C[C@H]1C(=O)N[C@H]1CCOC1=O)NC[C@@H](N)CS (stereo partly drawn) [Compound 13, N-[N′-[2(S)-(2(R)-amino-3-mercaptopropylamino)-3(S)-methylpentyl]-1,2,3,4-tetrahydro-3(S)-isoquinolinecarboxyl]-homoserine lactone]	> 10	0.39
CCC(C)C(CN1CCCC1C(=O)NC1CCOC1=O)NCC(N)CS [Compound 15, N-[2(S)-(2(R)-amino-3-mercaptopropylamino)-3(S)-methylpentyl]-prolyl-homoserine lactone]	50	1.4
CCC(C)C(CN1CCCCC1C(=O)NC1CCOC1=O)NCC(N)CS [Compound 17, N-[2(S)-(2(R)-amino-3-mercaptopropylamino)-3-methylpentyl]-2(S)-pipecolyl-homoserine lactone]	–	24
CCC(C)C(NCC(N)CS)C(=O)N1CCCC1C(=O)NC1CCOC1=O [Compound 19, N-[2(R)-amino-3-mercaptopropyl]-isoleucyl-prolyl-homserine lactone]	–	10
CCC(C)C(NCC(N)CS)C(=O)N1CCCCC1C(=O)NC1CCOC1=O [Compound 21, N-[2(R)-amino-3-mercaptopropyl]-isoleucyl-2(S)-pipecolyl-homserine lactone]	–	25
CCC(C)C(CN1CCCC1C(=O)NC(CCSC)C(=O)OC)N(C)CC(N)CS [Compound 23, N-[2(S)-(2(R)-amino-3-(mercaptopropyl)methylamino)-3(S)-methylpentyl]-prolyl-methionine methyl ester]	< 1	1.2
CCC(C)C(CN1CCCC1C(=O)NC(CCS(C)(=O)=O)C(=O)OC)N(C)CC(N)CS [Compound 25, N-[2(S)-(2(R)-amino-3-(mercaptopropyl)methylamino)-3(S)-methylpentyl]-prolyl-methionine sulfone methyl ester]	–	10

Stronger by IC50 [2], values ahead:

IC50 [1] [µM]	IC50 [2] [µM]	SMILES
–	0.00039	CCC(C)[C@@H](CN1Cc2ccccc2C[C@H]1C(=O)N[C@@H](CCSC)C(=O)O)NC[C@@H](N)CS (stereo partly drawn) [Compound 2, N-[N′-[2(S)-(2(R)-amino-3-mercaptopropylamino)-3(S)-methylpentyl]-1,2,3,4-tetrahydro-3(S)-isoquinolinecarboxyl]-methionine]
0.25	0.1	CC[C@H](C)[C@@H](CN1CCC[C@H]1C(=O)N[C@@H](CCSC)C(=O)OC)NC[C@@H](N)CS [Compound 3, N-[2(S)-(2(R)-amino-3-mercaptopropylamino)-3(S)-methylpentyl]-prolyl-methionine methyl ester]
10	0.017	CC[C@H](C)[C@@H](CN1CCC[C@H]1C(=O)N[C@@H](CCSC)C(=O)O)NC[C@@H](N)CS [Compound 4, N-[2(S)-(2(R)-amino-3-mercaptopropylamino)-3(S)-methylpentyl]-prolyl-methionine]
–	0.01	CC[C@H]1CCN(C[C@@H](NC[C@@H](N)CS)[C@@H](C)CC)[C@@H]1C(=O)N[C@@H](CCSC)C(=O)O [Compound 6, N-[2(S)-(2(R)-amino-3-mercaptopropylamino)-3(S)-methylpentyl]-trans-3-ethyl-prolyl-methionine]
–	0.0042	CC[C@@H]1CCN(C[C@@H](NC[C@@H](N)CS)[C@@H](C)CC)[C@@H]1C(=O)N[C@@H](CCSC)C(=O)O [Compound 8, N-[2(S)-(2(R)-amino-3-mercaptopropylamino)-3(S)-methylpentyl]-cis-3-ethyl-prolyl-methionine]
–	0.035	CCC(C)C(CN1CCCC1C(=O)NC(CCS(C)(=O)=O)C(=O)O)NCC(N)CS [Compound 10, N-[2(S)-(2(R)-amino-3-mercaptopropylamino)-3(S)-methylpentyl]-prolyl-methionine sulfone]
–	0.0076	CCC(C)[C@@H](CN1Cc2ccccc2C[C@H]1C(=O)N[C@@H](CCO)C(=O)O)NC[C@@H](N)CS (stereo partly drawn) [Compound 14, N-[N′-[2(S)-(2(R)-amino-3-mercaptopropylamino)-3(S)-methylpentyl]-1,2,3,4-tetrahydro-3(S)-isoquinolinecarboxyl]-homoserine]
–	0.045	CC[C@H](C)[C@@H](CN1CCC[C@H]1C(=O)N[C@@H](CCO)C(=O)O)NC[C@@H](N)CS [Compound 16, N-[2(S)-(2(R)-amino-3-mercaptopropylamino)-3(S)-methylpentyl]-prolyl-homoserine]
–	0.35	CCC(C)C(NCC(N)CS)C(=O)N1CCCC1C(=O)NC(CCO)C(=O)O [Compound 20, N-[2(R)-amino-3-mercaptopropyl]-isoleucyl-prolyl-homserine]
–	0.34	CCC(C)C(NCC(N)CS)C(=O)N1CCCCC1C(=O)NC(CCO)C(=O)O [Compound 22, N-[2(R)-amino-3-mercaptopropyl]-isoleucyl-2(S)-pipecolyl-homserine]
–	0.006	CCC(C)C(CN1CCCC1C(=O)NC(CCSC)C(=O)O)N(C)CC(N)CS [Compound 24, N-[2(S)-(2(R)-amino-3-(mercaptopropyl)methylamino)-3(S)-methylpentyl]-prolyl-methionine]
–	0.056	CCC(C)C(CN1CCCC1C(=O)NC(CCS(C)(=O)=O)C(=O)O)N(C)CC(N)CS [Compound 26, N-[2(S)-(2(R)-amino-3-(mercaptopropyl)methylamino)-3(S)-methylpentyl]-prolyl-methionine sulfone]
